In US5242916A, “Method for treatment of neurodegenerative diseases” (R. J. Reynolds Tobacco Company, priority 1992, dated 1993):

Tests used:
[1] = target: high affinity nicotinic receptors; assay: Inhibition of L-[3H]nicotine binding to mouse brain membrane preparations; design: species or system Mice (DBA strain); conditions: mouse brain membranes, 2 hr at 4° C., 10 nM L-[3H]nicotine, Ki calculated from IC50 by the method of Cheng et al.
Experimental: Mice (DBA strain) were maintained on a 12 hour light/dark cycle and were allowed free access to water and food supplied by Wayne Lab Blox, Madison, Wis. Animals used in the present studies were 60 to 90 days of age and weighed 20 to 25 g. Brain membrane preparations were obtained from pooled brain tissue of both males and females.
Mice were killed by cervical dislocation. Brains were removed and placed on an ice-cold platform. […] Protein was determined by the method of Lowry, et al., J. Biol. Chem., Vol. 193, pp. 265-275 (1951), using bovine serum albumin as the standard.
The binding of L-[^3 H]nicotine was measured using a modification of the method of Romano, et al., Science, Vol. 210, pp. 647-650 (1980) as described previously by Marks, et al., Mol. Pharmacol., Vol. 30, pp. 427-436 (1986). The binding of L-[^3 H]nicotine was measured using a 2 hr. incubation at 4° C. […] Nonspecific binding was determined by inclusion of 10 μM nonradioactive nicotine in the incubations. The inhibition of L-[^3 H]nicotine binding by test compounds was determined by including one of eight different concentrations of the test compound in the incubation. […] Inhibition constants (Ki values) were calculated from the IC50 values using the method of Cheng, et al., Biochem. Pharmacol., Vol. 22, pp. 3099-3108 (1973). […]

[2] = system: synaptosomes from the striatal area of rat brain; assay: [3H]-Dopamine release from rat striatal synaptosomes; type: biochemical, Sprague-Dawley rats; conditions: Percent release relative to (S)(-)nicotine at equal concentration, 0.2 ml of a 10 μM solution of ligand
Experimental: Dopamine release was measured by preparing synaptosomes from the striatal area of rat brain obtained from Sprague-Dawley rats generally according to the procedures set forth by Nagy, et al., J. Neurochem., Vol. 43, pp. 1114-1123 (1984). Striata from 4 rats were homogenized in 2 ml of 0.32M sucrose buffered with 5 mM HEPES (pH 7.5), using a glass-teflon tissue grinder. The homogenate was diluted to 5 ml with additional homogenization solution and centrifuged at 1000×g for 10 min. This procedure was repeated on the new pellet and the resulting supernatant was centrifuged at 12,000×g for 20 min. […] Using this method, 30 to 90 percent of the dopamine was taken up into the synaptosomes, as determined by scintillation counting following filtration through glass fiber filters soaked with 0.5 percent polyethyleneimine. […] After the addition of a 0.2 ml of a 10 μM solution of ligand, the perfusate was collected into scintillation vials at 1 min. intervals and the dopamine released was quantified by scintillation counting. Peaks of radioactivity released above background were summed and the average basal release during that time was subtracted from the total. Release was expressed as a percentage of release obtained with an equal concentration of (S)-(-)-nicotine.

For `CN1CC2CC(C1)c1cccc(=O)n1C2` (stereo not shown) [N-methylcytisine], the Ki [1] was 36 nM and the “Dopamine Release” value [2] was 29%.

In the case of `O=c1cccc2n1C[C@@H]1CNC[C@H]2C1` [cytisine], the Ki [1] is reported as 0.4 nM and the “Dopamine Release” value [2] is reported as 82%.
